From patent publication US11161846B2, “Substituted pyrazolo[4,3-b]pyridines and their use as GluN2B receptor modulators” (JANSSEN PHARMACEUTICA NV, priority 2019, dated 2021)

How the values were obtained:
[1] = biological target: T1, human GluN1/GluN2B NMDA receptors (Homo sapiens, UniProt Q05586+Q13224); assay: Calcium flux (FLIPR) assay on cloned human NR1/GluN2B ion channels expressed in mammalian cells, standard assay; format: cell-based; details: glutamate ~EC40 and 10 μM glycine, stable cell line with Tet-On induced expression
T1 construct: expressed in transfected cells
How it was run: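 Tet-On-induced stable mammalian line loaded with Calcium 5 dye (0.5 mM MgCl2 loading buffer), then assayed in pH 7.4 buffer with 137 mM NaCl, 4 mM KCl, 2 mM CaCl2. Compound was added for 5 min, then glutamate (~EC40) plus 10 µM glycine for 5 min. FLIPR fluorescence was normalized to control wells.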

[2] = Liver microsomal stability (extraction ratio); format: in vitro ADME; details: test compound 1 μM; 0.5 mg/mL liver microsomes, NADPH, 37° C.; species not given (method: mouse, rat, and human)
Experimental: Protocol for Liver Microsomal Stability (Extraction Ratio)
Liver Microsomal Stability.
Microsomal stability studies (Chrovian et al, “1H-Pyrrolo[3,2-b]pyridine GluN2B-Selective Negative Allosteric Modulators”. ACS Med Chem Lett. 2019 Jan. 10; 10(3):261-266) were conducted on a Biomek® FX Robotic Liquid Handling Workstation (Beckman Coulter, Brea, Calif.), which consists of a 96-channel pipette head, a 12-position workstation deck, and a plate incubator. Test compounds (1 μm) were spiked in a reaction mix consisting of 100 mM potassium phosphate buffer (pH 7.4), 3 mM MgCl2, and 0.5 mg/mL liver microsomes from mouse, rat, and human (BD Gentest). The reaction was brought to 37° C. and initiated by adding NADPH to a final concentration of 1 mM. After mixing on the plate deck, 50 μL aliquots were excised from the reaction plate at 0, 5, 10, 20, 40, and 60 min and quenched with four volumes of acetonitrile spiked with […] of the internal standard phenytoin. Quenched plates were centrifuged at 5700 rpm for 10 min at 4° C., and supernatant was diluted 1:3 in water before LC/MS/MS analysis. The compound half-lives were derived from plots of the ln of percent remaining compound over time to determine the intrinsic clearance. The predicted hepatic clearance was derived from the intrinsic clearance value using equations from the well-stirred model (Current Drug Metabolism, 2008, 9, 940-951), where no correction was made plasma protein binding and the blood to plasma concentration ratio was assumed to be one. The extraction ratio (ER) was calculated by dividing the predicted hepatic clearance by species blood flow (Q), where Q is 90, 55, and 21.7 mL/min/kg for mouse, rat and human, respectively.

T1 sequence (Q13224 27-1484, other chains not shown): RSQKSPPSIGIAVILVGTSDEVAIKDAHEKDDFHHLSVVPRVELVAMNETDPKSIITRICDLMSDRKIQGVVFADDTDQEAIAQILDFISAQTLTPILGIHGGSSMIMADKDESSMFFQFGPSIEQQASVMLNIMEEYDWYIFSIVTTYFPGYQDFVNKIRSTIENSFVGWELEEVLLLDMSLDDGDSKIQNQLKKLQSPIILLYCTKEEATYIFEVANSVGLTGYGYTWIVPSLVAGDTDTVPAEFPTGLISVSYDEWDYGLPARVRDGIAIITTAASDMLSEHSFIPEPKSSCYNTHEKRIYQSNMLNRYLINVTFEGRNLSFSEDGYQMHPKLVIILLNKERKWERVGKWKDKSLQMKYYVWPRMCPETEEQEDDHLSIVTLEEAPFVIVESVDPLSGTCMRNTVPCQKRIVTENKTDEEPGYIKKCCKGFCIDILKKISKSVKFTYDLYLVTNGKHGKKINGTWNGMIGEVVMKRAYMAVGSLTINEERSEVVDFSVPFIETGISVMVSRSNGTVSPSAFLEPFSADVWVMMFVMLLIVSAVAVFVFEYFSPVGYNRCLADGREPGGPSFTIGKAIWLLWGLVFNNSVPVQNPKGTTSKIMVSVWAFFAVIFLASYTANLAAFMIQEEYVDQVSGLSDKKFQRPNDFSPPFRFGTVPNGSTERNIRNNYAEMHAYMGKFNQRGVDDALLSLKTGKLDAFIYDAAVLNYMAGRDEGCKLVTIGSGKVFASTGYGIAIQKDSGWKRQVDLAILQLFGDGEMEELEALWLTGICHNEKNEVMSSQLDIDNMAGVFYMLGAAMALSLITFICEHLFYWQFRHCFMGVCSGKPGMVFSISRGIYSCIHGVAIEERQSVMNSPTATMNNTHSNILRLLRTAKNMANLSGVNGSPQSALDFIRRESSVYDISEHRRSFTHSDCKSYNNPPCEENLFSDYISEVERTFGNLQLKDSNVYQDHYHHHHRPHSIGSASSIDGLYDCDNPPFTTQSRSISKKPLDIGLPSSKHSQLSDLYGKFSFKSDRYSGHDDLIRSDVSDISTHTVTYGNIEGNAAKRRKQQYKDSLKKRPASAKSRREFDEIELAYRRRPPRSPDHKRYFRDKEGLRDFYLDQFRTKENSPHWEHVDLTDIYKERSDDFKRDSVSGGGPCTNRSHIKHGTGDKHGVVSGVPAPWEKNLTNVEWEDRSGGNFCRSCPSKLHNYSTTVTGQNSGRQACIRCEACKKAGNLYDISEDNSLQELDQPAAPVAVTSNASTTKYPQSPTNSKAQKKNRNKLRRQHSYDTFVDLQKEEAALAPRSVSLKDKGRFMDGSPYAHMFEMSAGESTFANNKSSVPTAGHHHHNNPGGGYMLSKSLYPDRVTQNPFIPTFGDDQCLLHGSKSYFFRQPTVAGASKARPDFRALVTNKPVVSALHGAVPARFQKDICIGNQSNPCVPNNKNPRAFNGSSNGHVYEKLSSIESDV

Row | Compound | IC50 [1] [µM] | Extraction Ratio @ 1 μM [2]
1 | CC[S+]([O-])Cn1ncc2ncc(-c3cccc(C(F)(F)F)c3F)cc21 (racemic) [Example 86, (RS)-1-(Ethylsulfinylmethyl)-6-[2-fluoro-3-(trifluoromethyl)phenyl]pyrazolo[4,3-b]pyridine] | 0.08 | 0.50
2 | CCN1CC(Cn2ncc3ncc(-c4ccc(F)c(C(F)F)c4)cc32)OC1=O (racemic) [Example 131, (RS)-5-[[6-[3-(Difluoromethyl)-4-fluoro-phenyl]pyrazolo[4,3-b]pyridin-1-yl]methyl]-3-ethyl-oxazolidin-2-one] | 0.193 | 0.58
3 | CC[S+]([O-])Cn1ncc2ncc(-c3ccc(F)c(C(F)F)c3)cc21 (single isomer, unassigned) [Example 85, (R*)-6-(3-(Difluoromethyl)-4-fluorophenyl)-1-((ethylsulfinyl)methyl)-1H-pyrazolo[4,3-b]pyridine] | 0.066 | 0.46
4 | CC(=O)Cn1ncc2ncc(-c3ccc(F)c(OC(F)F)c3)cc21 [Example 25, 1-[6-[3-(Difluoromethoxy)-4-fluoro-phenyl]pyrazolo[4,3-b]pyridin-1-yl]propan-2-one] | 0.034 | 0.64
5 | Cc1c(F)ccc(-c2cnc3cnn(CC(=O)C4CC4)c3c2)c1C [Example 78, 1-Cyclopropyl-2-[6-(4-fluoro-2,3-dimethyl-phenyl)pyrazolo[4,3-b]pyridin-1-yl]ethanone] | 0.085 | 0.52
6 | O=C(Cn1ncc2ncc(-c3ccc(F)c(C(F)F)c3)cc21)c1ncc(F)cc1F [Example 141, 2-(6-(3-(Difluoromethyl)-4-fluorophenyl)-1H-pyrazolo[4,3-b]pyridin-1-yl)-1-(3,5-difluoropyridin-2-yl)ethan-1-one] | 0.409 | –
7 | O=C(Cn1ncc2ncc(-c3ccc(F)c(C(F)F)c3)cc21)c1cnccn1 [Example 142, 2-(6-(3-(Difluoromethyl)-4-fluorophenyl)-1H-pyrazolo[4,3-b]pyridin-1-yl)-1-(pyrazin-2-yl)ethan-1-one] | 0.074 | –

These reach a lower IC50 [1]. Values come first.

Row | IC50 [1] [µM] | Extraction Ratio @ 1 μM [2] | Compound
8 | 0.01 | 0.66 | CCC(=O)Cn1ncc2ncc(-c3ccc(F)c(C(F)F)c3)cc21 [Example 4, 1-[6-[3-(Difluoromethyl)-4-fluoro-phenyl]pyrazolo[4,3-b]pyridin-1-yl]butan-2-one]
9 | 0.027 | 0.72 | CCC(=O)Cn1nc(C)c2ncc(-c3ccc(F)c(C(F)F)c3)cc21 [Example 36, 1-(6-(3-(Difluoromethyl)-4-fluorophenyl)-3-methyl-1H-pyrazolo[4,3-b]pyridin-1-yl)butan-2-one]
10 | 0.03 | 0.61 | CCC(=O)Cn1ncc2ncc(-c3cccc(C(F)(F)F)c3F)cc21 [Example 38, 1-[6-[2-Fluoro-3-(trifluoromethyl)phenyl]pyrazolo[4,3-b]pyridin-1-yl]butan-2-one]
11 | 0.027 | 0.63 | CCC(=O)Cn1ncc2ncc(-c3cc(F)c(F)c(F)c3)cc21 [Example 42, 1-[6-(3,4,5-Trifluorophenyl)pyrazolo[4,3-b]pyridin-1-yl]butan-2-one]
12 | 0.012 | 0.43 | O=C(Cn1ncc2ncc(-c3cccc(C(F)F)c3)cc21)C1CC1 [Example 61, 1-Cyclopropyl-2-[6-[3-(difluoromethyl)phenyl]pyrazolo[4,3-b]pyridin-1-yl]ethanone]
